ChEMBL document CHEMBL1201862, “PubChem BioAssay data set” (2004)
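Cells were grown in 96-well plates and exposed to each compound for 48 hours at five concentrations; endpoints were interpolated linearly between bracketing concentrations, or set to the highest concentration if not reached. The concentration for 50% growth inhibition is given as GI50.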 The source made the active and inactive calls. Rule as the data show it: active = GI50 up to about 1.1 µM and inactive = higher.

Tests used:
Experiment in all cases: NCI anticancer screen, dose series, 48 h
[1] = system: ACHN
[2] = system: NCI/ADR-RES
[3] = system: HOP-92
[4] = system: OVCAR-3
[5] = system: U-251
[6] = system: SNB-75
[7] = system: K562
[8] = system: OVCAR-5
[9] = system: NCI-H522
[10] = system: HCC 2998
[11] = system: M14
[12] = system: TK-10
[13] = system: OVCAR-4
[14] = system: UO-31
[15] = system: SK-MEL-5
[16] = system: A498
[17] = system: OVCAR-8
[18] = system: UACC-62
[19] = system: LOX IMVI

Structure (SMILES)	GI50 [1]	GI50 [2]	GI50 [3]	GI50 [4]	GI50 [5]	GI50 [6]	GI50 [7]	GI50 [8]	GI50 [9]	GI50 [10]	GI50 [11]	GI50 [12]	GI50 [13]	GI50 [14]	GI50 [15]	GI50 [16]	GI50 [17]	GI50 [18]	GI50 [19]
CCN(CC)Cc1cc(Nc2c3ccccc3nc3c4ccccc4n(C)c23)cc(CN(CC)CC)c1O	5.43 µM (inactive)	2.91 µM (inactive)	4.6 µM (inactive)	2.43 µM (inactive)	5.27 µM (inactive)	12 µM (inactive)	2.76 µM (inactive)	6.84 µM (inactive)	1.75 µM (inactive)	5.11 µM (inactive)	1.76 µM (inactive)	10.9 µM (inactive)	4.43 µM (inactive)	2.12 µM (inactive)	1.65 µM (inactive)	6.07 µM (inactive)	4.39 µM (inactive)	2.81 µM (inactive)	–
Cc1ccc(/N=N/c2c(C)c(C#N)c(=S)n(C3OC(CO)C(O)C(O)C3O)c2C)cc1 (centres undefined)	34 µM (inactive)	30.5 µM (inactive)	11.7 µM (inactive)	29.6 µM (inactive)	21.2 µM (inactive)	25.4 µM (inactive)	18.4 µM (inactive)	38.3 µM (inactive)	–	21.7 µM (inactive)	20.4 µM (inactive)	63.1 µM (inactive)	34.4 µM (inactive)	37.5 µM (inactive)	17.4 µM (inactive)	–	–	13.5 µM (inactive)	18.2 µM (inactive)
COc1cccc(-c2nnc3c(-c4ccccc4)nc4ccccc4n23)c1	> 62.2 µM (inactive)	14.4 µM (inactive)	28 µM (inactive)	12.7 µM (inactive)	21.8 µM (inactive)	–	4.11 µM (inactive)	> 100 µM (inactive)	3.37 µM (inactive)	8.49 µM (inactive)	29.5 µM (inactive)	36.3 µM (inactive)	9.86 µM (inactive)	10.5 µM (inactive)	14 µM (inactive)	6.58 µM (inactive)	45.2 µM (inactive)	75.7 µM (inactive)	63.5 µM (inactive)
Cc1nn(C(=O)c2ccc(Cl)cc2)c2c1C(c1ccccc1)SC(=N)N2 (centres undefined)	> 10 µM (inactive)	> 10 µM (inactive)	> 10 µM (inactive)	> 10 µM (inactive)	> 10 µM (inactive)	> 10 µM (inactive)	> 10 µM (inactive)	> 10 µM (inactive)	> 10 µM (inactive)	> 10 µM (inactive)	> 10 µM (inactive)	> 10 µM (inactive)	> 10 µM (inactive)	–	> 10 µM (inactive)	–	> 10 µM (inactive)	> 10 µM (inactive)	> 10 µM (inactive)
O=C(CC(=O)N(C(=O)/C=C\c1ccccc1)c1ccc(Cl)cc1)N1N=C(c2ccccc2)C(/N=N/c2cccc([N+](=O)[O-])c2)C1=O (centres undefined)	5.13 µM (inactive)	2.18 µM (inactive)	51.4 µM (inactive)	2.36 µM (inactive)	5.82 µM (inactive)	11.9 µM (inactive)	4.65 µM (inactive)	48.9 µM (inactive)	–	3.87 µM (inactive)	7.08 µM (inactive)	7.89 µM (inactive)	–	> 100 µM (inactive)	–	6.03 µM (inactive)	3.78 µM (inactive)	3.09 µM (inactive)	2.98 µM (inactive)
COc1ccc(C#Cn2nnc3ccccc32)cc1	> 100 µM (inactive)	> 100 µM (inactive)	> 100 µM (inactive)	40.5 µM (inactive)	> 100 µM (inactive)	–	> 100 µM (inactive)	> 100 µM (inactive)	48 µM (inactive)	26.2 µM (inactive)	> 100 µM (inactive)	> 100 µM (inactive)	> 100 µM (inactive)	2.15 µM (inactive)	> 100 µM (inactive)	> 100 µM (inactive)	> 100 µM (inactive)	> 100 µM (inactive)	> 100 µM (inactive)
CC(=O)Nc1ccccc1SCCSSCCSc1ccccc1NC(C)=O	20.6 µM (inactive)	31.8 µM (inactive)	17.5 µM (inactive)	28.8 µM (inactive)	26.5 µM (inactive)	24.3 µM (inactive)	28.6 µM (inactive)	31.5 µM (inactive)	16.8 µM (inactive)	22.3 µM (inactive)	31.5 µM (inactive)	34.1 µM (inactive)	22.6 µM (inactive)	17.8 µM (inactive)	38.5 µM (inactive)	–	38.9 µM (inactive)	32 µM (inactive)	20 µM (inactive)
NC(=O)C(=CN1C(=O)CC(=O)NC1=S)C(N)=O	> 100 µM (inactive)	> 100 µM (inactive)	> 100 µM (inactive)	> 100 µM (inactive)	> 100 µM (inactive)	> 100 µM (inactive)	–	> 100 µM (inactive)	–	> 100 µM (inactive)	> 100 µM (inactive)	> 100 µM (inactive)	> 100 µM (inactive)	> 100 µM (inactive)	> 100 µM (inactive)	> 100 µM (inactive)	> 100 µM (inactive)	–	> 100 µM (inactive)
COC1CC(OC2OC(CO)C(O)C(O)C2O)/C(=C\C#N)C(O)C1OC (centres undefined)	> 100 µM (inactive)	> 100 µM (inactive)	> 100 µM (inactive)	> 100 µM (inactive)	> 100 µM (inactive)	–	–	> 100 µM (inactive)	> 100 µM (inactive)	> 100 µM (inactive)	> 100 µM (inactive)	> 100 µM (inactive)	> 100 µM (inactive)	> 100 µM (inactive)	> 100 µM (inactive)	> 100 µM (inactive)	> 100 µM (inactive)	> 100 µM (inactive)	> 100 µM (inactive)
CSc1c(C(=O)Nc2ccc(C)cc2)c(N)n(N)c(=O)c1C#N	–	> 100 µM (inactive)	–	> 100 µM (inactive)	> 100 µM (inactive)	> 100 µM (inactive)	> 100 µM (inactive)	> 100 µM (inactive)	> 100 µM (inactive)	> 100 µM (inactive)	> 100 µM (inactive)	> 100 µM (inactive)	> 100 µM (inactive)	60.1 µM (inactive)	> 100 µM (inactive)	> 100 µM (inactive)	> 100 µM (inactive)	> 100 µM (inactive)	> 100 µM (inactive)
CC1C2CCC3C(O)C2(CC(O)C2(O)C1CC(O)C2(C)C)CC3(C)O (centres undefined)	> 100 µM (inactive)	> 100 µM (inactive)	> 100 µM (inactive)	–	> 100 µM (inactive)	–	> 100 µM (inactive)	> 100 µM (inactive)	> 100 µM (inactive)	> 100 µM (inactive)	> 100 µM (inactive)	> 100 µM (inactive)	> 100 µM (inactive)	> 100 µM (inactive)	> 100 µM (inactive)	> 100 µM (inactive)	> 100 µM (inactive)	> 100 µM (inactive)	> 100 µM (inactive)
CCOc1cn(C2CC(O)C(CO)O2)c(=O)[nH]c1=O (centres undefined)	> 100 µM (inactive)	> 100 µM (inactive)	> 100 µM (inactive)	> 100 µM (inactive)	> 100 µM (inactive)	> 100 µM (inactive)	–	> 100 µM (inactive)	–	> 100 µM (inactive)	> 100 µM (inactive)	> 100 µM (inactive)	> 100 µM (inactive)	> 100 µM (inactive)	> 100 µM (inactive)	45.8 µM (inactive)	–	> 100 µM (inactive)	> 100 µM (inactive)
C/C=C\C(CC(=O)NCCC1CN(C(=O)OCc2ccccc2)c2ccccc21)CC(=O)OC (centres undefined)	> 100 µM (inactive)	> 100 µM (inactive)	72.1 µM (inactive)	> 100 µM (inactive)	> 100 µM (inactive)	> 100 µM (inactive)	> 100 µM (inactive)	> 100 µM (inactive)	> 100 µM (inactive)	> 100 µM (inactive)	> 100 µM (inactive)	> 100 µM (inactive)	> 100 µM (inactive)	> 100 µM (inactive)	> 100 µM (inactive)	> 100 µM (inactive)	> 100 µM (inactive)	> 100 µM (inactive)	–
Cc1cc(-c2[nH]c(C(=O)O)cc2I)on1	91.4 µM (inactive)	> 100 µM (inactive)	9.33 µM (inactive)	> 100 µM (inactive)	40.9 µM (inactive)	24.8 µM (inactive)	> 100 µM (inactive)	29.2 µM (inactive)	> 100 µM (inactive)	> 100 µM (inactive)	80 µM (inactive)	> 100 µM (inactive)	> 100 µM (inactive)	40.5 µM (inactive)	> 100 µM (inactive)	> 100 µM (inactive)	20.2 µM (inactive)	53.8 µM (inactive)	–
Cc1cccc2c(N)c3cccc(C(=O)NCCN(C)C)c3nc12	< 0.0163 µM (active)	0.373 µM (active)	–	0.125 µM (active)	< 0.0302 µM (active)	0.074 µM (active)	0.0162 µM (active)	0.0935 µM (active)	< 0.0176 µM (active)	0.027 µM (active)	0.143 µM (active)	0.214 µM (active)	0.09 µM (active)	0.112 µM (active)	0.114 µM (active)	0.157 µM (active)	0.0695 µM (active)	0.0649 µM (active)	< 0.033 µM (active)
C/C(=N\Nc1nc2ccccc2o1)c1cc(C)ncn1	< 0.0189 µM (active)	0.0242 µM (active)	–	< 0.0223 µM (active)	0.128 µM (active)	0.151 µM (active)	0.0356 µM (active)	0.618 µM (active)	< 0.01 µM (active)	11 µM (inactive)	< 0.0206 µM (active)	–	0.136 µM (active)	0.019 µM (active)	0.0381 µM (active)	> 100 µM (inactive)	0.0173 µM (active)	0.0867 µM (active)	–
